We go through two compounds from article PMC4104029, “Mechanism of Action of Compound-13: An α1-Selective Small Molecule Activator of AMPK” (Chemistry & Biology, 2014).

SMILES strings stand for the structures.

For experiment [1], the system named is isolated, full-length AMPKα1 and α2 subunits. In words: Isolated AMPKα subunit activity assay. The experiment is classed as biochemical, human. As to conditions: C2 0–1000 nM, conditions as Figure 1B. The protocol:
Supplemental Figure Legends:
Figure S1, related to Figures 1-3. Subunit composition of AMPK preparations used in this study. (A) Heterotrimeric AMPK complexes (10 ng) produced in both Sf9 (Sigma and Signalchem) and E.coli (in our laboratory) were analysed by Western blotting using isoform specific antibodies. Note that both the α2/α1-HOOK and α2/α1-LOOP chimeras are no longer recognised by the anti-α2 antibody as the epitope has been replaced (see Fig S4). (B) Heterotrimeric AMPK α2/α1 chimeric complexes expressed in E.coli (2 μg) were separated by SDS-PAGE and stained with Coomassie G-250. Arrows indicate the position of the […]
Figure S2, related to Figure 1. C2 has negligible effects on a panel of 138 protein kinases.
Kinase inhibition screen was performed by the International Centre for Kinase profiling (Dundee). Assays were performed in duplicate using 10 µM C2 and are representative of two independent screens. Results are shown in rank order as mean % activity compared with controls in the absence of compound ± SD. […]
Figure S3, related to Figure 2. […] Results are expressed as mean Pi incorporated in nmol.min-1.mg-1 ± SD. […] Results are expressed as fold increase in activity relative to controls in the absence of compound ± SD.
(E) C2 and AMP displace a GST-AMPKγ2 subunit fusion from ATP-γ-Sepharose. […] The presence of eluted AMPKγ2 was analysed by SDS-PAGE and staining with colloidal Coomassie. […]

The next experiment has as its system mouse hepatocytes. The experiment can be described thus: Adenine nucleotide ratios by capillary electrophoresis. The experiment is classed as cell-based. As to conditions: 1 hr; C13 up to 100 μM. The protocol: Figure 4 The C2 Prodrug, C13, Potently Activates AMPK in Mouse Primary Hepatocytes (A) Isolated mouse hepatocytes were incubated with vehicle or the indicated concentrations of C13 for 1 hr. AICAR (0.5 mM) was included as a positive control. Cell lysates were analyzed using western blotting with the indicated antibodies. (B) AMPKα1 or AMPKα2 complexes were immunoprecipitated from hepatocyte extracts prepared as described in (A) and assayed for kinase activity using 0.2 mM AMARA and 0.1 mM ATP. Results are expressed as the mean Pi incorporated in picomoles per minute-milligram ± SD. (C) Hepatocytes were stimulated with 30 μM C13 for the indicated times prior to harvesting, with AICAR (0.5 mM, 1 hr) as positive control. Lysates were analyzed using western blotting with the indicated antibodies. (D) Mouse hepatocytes were treated with the indicated compounds for 1 hr, and adenine nucleotide ratios were determined using capillary electrophoresis of perchloric acid extracts. (E) Mouse hepatocytes were preincubated with 30 μM STO-609 for 30 min prior to stimulation with 30 μM C13 for 1 hr or with 1 μM ionomycin for 30 min. Lysates were analyzed using western blotting with the indicated antibodies. (F) Wild-type (LKB1^+/+) or LKB1-null (LKB1^−/−) mouse embryonic fibroblasts were incubated with the indicated concentrations of C13 for 1 hr. AICAR (2 mM) was included as a positive control. Lysates were analyzed using western blotting with the indicated antibodies. Results are representative of three independent experiments. […]
Isolation of primary hepatocytes. Hepatocytes were isolated from fasted mice by collagenase digestion (Berry and Friend, 1969). Cells were seeded in M199 containing 100 U/ml penicillin G, 100 µg/ml streptomycin, 0.1 % (w/v) BSA, 10 % (v/v) FBS, 10 nM insulin, 200 nM triiodothyronine and 100 nM dexamethasone. […]
Nucleotide measurements. […] Nucleotides were separated and quantified by capillary electrophoresis using a Beckman P/ACE instrument as previously described (Hawley, et al., 2010).

Consider `O=P(O)(O)c1ccc(-c2cc(O)on2)o1` [Compound C2, 5-(5-hydroxyl-isoxazol-3-yl)-furan-2-phosphonic acid], for which the effect on activity entry in experiment [1] is listed as “no effect”. Take `CC(C)C(=O)OCOP(=O)(OCOC(=O)C(C)C)c1ccc(C2=NOC(=O)C2)o1` [Compound C13]: the “ADP:ATP and AMP:ATP ratios” value with mouse hepatocytes is recorded as “no detectable changes”.
